Target: APJ receptor (Homo sapiens (Human), UniProt P35414)
Experiment: [35S]GTPγS binding assay on membranes from CHO cells stably expressing human APJ receptor
Type: biochemical
Details: membranes of CHO cells stably expressing human APJ receptor, means of several independent experiments, read-out: Activity hAPJ SPA EC50 IP
Procedure, shortened: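 Membranes from CHO cells stably expressing human APJ were incubated with 0.2 nM [35S]GTPγS and ligands for 90 min at RT in 20 mM HEPES pH 7.5, 5 mM MgCl2, 200 mM NaCl, 3 μM GDP, 0.1% BSA with WGA PS beads. Nonspecific binding was set with 100 μM GTPγS. EC50 came from non-linear regression.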

APJ receptor, sequence (P35414 whole entry): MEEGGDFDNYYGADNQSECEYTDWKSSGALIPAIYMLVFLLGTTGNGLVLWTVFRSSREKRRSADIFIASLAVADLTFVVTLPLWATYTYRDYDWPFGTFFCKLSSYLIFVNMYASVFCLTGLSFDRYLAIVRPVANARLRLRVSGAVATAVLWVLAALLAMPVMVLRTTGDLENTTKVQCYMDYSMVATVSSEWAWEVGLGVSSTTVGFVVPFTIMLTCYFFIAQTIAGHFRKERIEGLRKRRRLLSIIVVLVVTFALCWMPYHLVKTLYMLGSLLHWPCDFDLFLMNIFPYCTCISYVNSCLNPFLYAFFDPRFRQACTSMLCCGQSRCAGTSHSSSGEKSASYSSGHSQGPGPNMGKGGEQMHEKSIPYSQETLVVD

EC50 | SMILES
0.52 nM | COc1cnc(N2C[C@H](O)C[C@H](S(=O)(=O)Nc3nnc(-c4ccc(C)o4)n3-c3c(OC)cccc3OC)C2)nc1 (racemic) [Example 335.0, (3S,5R)—N-(4-(2,6-Dimethoxyphenyl)-5-(5-methylfuran-2-yl)-4H-1,2,4-triazol-3-yl)-5-hydroxy-1-(5-methoxypyrimidin-2-yl)piperidine-3-sulfonamide and (3R,5S)—N-(4-(2,6-dimethoxyphenyl)-5-(5-methylfuran-2-yl)-4H-1,2,4-triazol-3-yl)-5-hydroxy-1-(5-methoxypyrimidin-2-yl)piperidine-3-sulfonamide]
0.95 nM | COc1cccc(OC)c1-n1c(NS(=O)(=O)[C@@H](C)Cc2ncc(F)c3[nH]cnc23)nnc1-c1ccco1 (single isomer, unassigned) [Example 5.0, (2S)—N-(4-(2,6-dimethoxyphenyl)-5-(2-furanyl)-4H-1,2,4-triazol-3-yl)-1-(7-fluoro-1H-imidazo[4,5-c]pyridin-4-yl)-2-propanesulfonamide or (2R)—N-(4-(2,6-dimethoxyphenyl)-5-(2-furanyl)-4H-1,2,4-triazol-3-yl)-1-(7-fluoro-1H-imidazo[4,5-c]pyridin-4-yl)-2-propanesulfonamide]
0.091 nM | COc1cccc(OC)c1-n1c(NS(=O)(=O)[C@H](C)Cc2ncc(Cl)cc2NC(C)=O)nnc1-c1ccco1 (single isomer, unassigned) [Example 9.0, N-(5-chloro-2-((2R)-2-((4-(2,6-dimethoxyphenyl)-5-(2-furanyl)-4H-1,2,4-triazol-3-yl)sulfamoyl)propyl)-3-pyridinyl)acetamide or N-(5-chloro-2-((2S)-2-((4-(2,6-dimethoxyphenyl)-5-(2-furanyl)-4H-1,2,4-triazol-3-yl)sulfamoyl)propyl)-3-pyridinyl)acetamide]
0.11 nM | COc1cccc(OC)c1-n1c(NS(=O)(=O)[C@@H](C)[C@@H](O)c2ccc(C#N)cn2)nnc1-c1ccc(C)o1 (single isomer, unassigned) [Example 10.0, (1S,2S)-1-(5-cyano-2-pyridinyl)-N-(4-(2,6-dimethoxyphenyl)-5-(5-methyl-2-furanyl)-4H-1,2,4-triazol-3-yl)-1-hydroxy-2-propanesulfonamide or (1R,2R)-1-(5-cyano-2-pyridinyl)-N-(4-(2,6-dimethoxyphenyl)-5-(5-methyl-2-furanyl)-4H-1,2,4-triazol-3-yl)-1-hydroxy-2-propanesulfonamide]
0.14 nM | COc1cccc(OC)c1-n1c(NS(=O)(=O)[C@H](C)Cc2ccc(Cl)cn2)nnc1-c1ccco1 (single isomer, unassigned) [Example 11.0, (2R)-1-(5-chloro-2-pyridinyl)-N-(4-(2,6-dimethoxyphenyl)-5-(2-furanyl)-4H-1,2,4-triazol-3-yl)-2-propanesulfonamide or (2S)-1-(5-chloro-2-pyridinyl)-N-(4-(2,6-dimethoxyphenyl)-5-(2-furanyl)-4H-1,2,4-triazol-3-yl)-2-propanesulfonamide]
0.15 nM | COc1cccc(OC)c1-n1c(NS(=O)(=O)[C@H](C)Cc2ccc(C#N)cn2)nnc1-c1ccc(C)o1 (single isomer, unassigned) [Example 12.0, (2R)-1-(5-cyano-2-pyridinyl)-N-(4-(2,6-dimethoxyphenyl)-5-(5-methyl-2-furanyl)-4H-1,2,4-triazol-3-yl)-2-propanesulfonamide or (2S)-1-(5-cyano-2-pyridinyl)-N-(4-(2,6-dimethoxyphenyl)-5-(5-methyl-2-furanyl)-4H-1,2,4-triazol-3-yl)-2-propanesulfonamide]
0.22 nM | COc1cccc(OC)c1-n1c(NS(=O)(=O)[C@@H](C)Cc2ncc(C)cn2)nnc1-c1ccc(C)o1 (single isomer, unassigned) [Example 16.0, (2S)—N-(4-(2,6-dimethoxyphenyl)-5-(5-methyl-2-furanyl)-4H-1,2,4-triazol-3-yl)-1-(5-methyl-2-pyrimidinyl)-2-propanesulfonamide or (2R)—N-(4-(2,6-dimethoxyphenyl)-5-(5-methyl-2-furanyl)-4H-1,2,4-triazol-3-yl)-1-(5-methyl-2-pyrimidinyl)-2-propanesulfonamide]
0.26 nM | COc1cccc(OC)c1-n1c(NS(=O)(=O)[C@@H](C)Cc2ncc(Cl)cc2C(N)=O)nnc1-c1ccco1 (single isomer, unassigned) [Example 17.0, 5-chloro-2-((2S)-2-((4-(2,6-dimethoxyphenyl)-5-(2-furanyl)-4H-1,2,4-triazol-3-yl)sulfamoyl)propyl)-3-pyridinecarboxamide or 5-chloro-2-((2R)-2-((4-(2,6-dimethoxyphenyl)-5-(2-furanyl)-4H-1,2,4-triazol-3-yl)sulfamoyl)propyl)-3-pyridinecarboxamide]
0.3 nM | COc1cccc(OC)c1-n1c(NS(=O)(=O)[C@H](C)Cc2ncc(Cl)cc2C#N)nnc1-c1ccco1 (single isomer, unassigned) [Example 20.0, (2R)-1-(5-chloro-3-cyano-2-pyridinyl)-N-(4-(2,6-dimethoxyphenyl)-5-(2-furanyl)-4H-1,2,4-triazol-3-yl)-2-propanesulfonamide or (2S)-1-(5-chloro-3-cyano-2-pyridinyl)-N-(4-(2,6-dimethoxyphenyl)-5-(2-furanyl)-4H-1,2,4-triazol-3-yl)-2-propanesulfonamide]
0.31 nM | CCN(CC)C(=O)c1cc(Cl)cnc1C[C@@H](C)S(=O)(=O)Nc1nnc(-c2ccco2)n1-c1c(OC)cccc1OC (single isomer, unassigned) [Example 21.0, 5-chloro-2-((2R)-2-((4-(2,6-dimethoxyphenyl)-5-(2-furanyl)-4H-1,2,4-triazol-3-yl)sulfamoyl)propyl)-N,N-diethyl-3-pyridinecarboxamide or 5-chloro-2-((2S)-2-((4-(2,6-dimethoxyphenyl)-5-(2-furanyl)-4H-1,2,4-triazol-3-yl)sulfamoyl)propyl)-N,N-diethyl-3-pyridinecarboxamide]
0.36 nM | COc1cccc(OC)c1-n1c(NS(=O)(=O)[C@H](C)Cc2ccc(Br)cn2)nnc1-c1ccco1 (single isomer, unassigned) [Example 23.0, (2R)-1-(5-bromo-2-pyridinyl)-N-(4-(2,6-dimethoxyphenyl)-5-(2-furanyl)-4H-1,2,4-triazol-3-yl)-2-propanesulfonamide or (2S)-1-(5-bromo-2-pyridinyl)-N-(4-(2,6-dimethoxyphenyl)-5-(2-furanyl)-4H-1,2,4-triazol-3-yl)-2-propanesulfonamide]
0.36 nM | COc1cccc(OC)c1-n1c(NS(=O)(=O)[C@H](C)Cc2cnc(C)cn2)nnc1-c1ccc(C)o1 (single isomer, unassigned) [Example 24.0, (2R)—N-(4-(2,6-dimethoxyphenyl)-5-(5-methyl-2-furanyl)-4H-1,2,4-triazol-3-yl)-1-(5-methyl-2-pyrazinyl)-2-propanesulfonamide or (2S)—N-(4-(2,6-dimethoxyphenyl)-5-(5-methyl-2-furanyl)-4H-1,2,4-triazol-3-yl)-1-(5-methyl-2-pyrazinyl)-2-propanesulfonamide]
0.37 nM | COc1cccc(OC)c1-n1c(NS(=O)(=O)[C@H](C)Cc2ccc(F)cn2)nnc1-c1ccco1 (single isomer, unassigned) [Example 25.0, (2R)—N-(4-(2,6-dimethoxyphenyl)-5-(2-furanyl)-4H-1,2,4-triazol-3-yl)-1-(5-fluoro-2-pyridinyl)-2-propanesulfonamide or (2S)—N-(4-(2,6-dimethoxyphenyl)-5-(2-furanyl)-4H-1,2,4-triazol-3-yl)-1-(5-fluoro-2-pyridinyl)-2-propanesulfonamide]
1.2 nM | COc1cccc(OC)c1-n1c(NS(=O)(=O)[C@H](C)Cc2ccc(C#N)cn2)nnc1-c1ccco1 (single isomer, unassigned) [Example 30.0, (2R)-1-(5-cyano-2-pyridinyl)-N-(4-(2,6-dimethoxyphenyl)-5-(2-furanyl)-4H-1,2,4-triazol-3-yl)-2-propanesulfonamide or (2S)-1-(5-cyano-2-pyridinyl)-N-(4-(2,6-dimethoxyphenyl)-5-(2-furanyl)-4H-1,2,4-triazol-3-yl)-2-propanesulfonamide]
1.9 nM | COc1cccc(OC)c1-n1c(NS(=O)(=O)[C@H](C)Cc2ccc(C)nn2)nnc1-c1ccc(C)o1 (single isomer, unassigned) [Example 31.0, (2R)—N-(4-(2,6-dimethoxyphenyl)-5-(5-methyl-2-furanyl)-4H-1,2,4-triazol-3-yl)-1-(6-methyl-3-pyridazinyl)-2-propanesulfonamide or (2S)—N-(4-(2,6-dimethoxyphenyl)-5-(5-methyl-2-furanyl)-4H-1,2,4-triazol-3-yl)-1-(6-methyl-3-pyridazinyl)-2-propanesulfonamide]
2.3 nM | COc1cccc(OC)c1-n1c(NS(=O)(=O)[C@H](C)Cc2cnc(C)cn2)nnc1-c1ccco1 (single isomer, unassigned) [Example 32.0, (2R)—N-(4-(2,6-dimethoxyphenyl)-5-(2-furanyl)-4H-1,2,4-triazol-3-yl)-1-(5-methyl-2-pyrazinyl)-2-propanesulfonamide or (2S)—N-(4-(2,6-dimethoxyphenyl)-5-(2-furanyl)-4H-1,2,4-triazol-3-yl)-1-(5-methyl-2-pyrazinyl)-2-propanesulfonamide]
2.4 nM | COc1cccc(OC)c1-n1c(NS(=O)(=O)[C@H](C)Cc2ccc(C#N)cn2)nnc1-c1ccc(C)o1 (single isomer, unassigned) [Example 33.0, (2R)-1-(5-cyano-2-pyridinyl)-N-(4-(2,6-dimethoxyphenyl)-5-(5-methyl-2-furanyl)-4H-1,2,4-triazol-3-yl)-2-propanesulfonamide or (2S)-1-(5-cyano-2-pyridinyl)-N-(4-(2,6-dimethoxyphenyl)-5-(5-methyl-2-furanyl)-4H-1,2,4-triazol-3-yl)-2-propanesulfonamide]
